Laboratory results as given in PubChem BioAssay (NCI).
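Grown in 96-well plates, cells were treated for 48 hours with each compound at five concentrations. Insufficient inhibition: endpoint recorded as highest concentration tested. TGI denotes the concentration required for complete inhibition of growth.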

Columns and labels:
Assay in all cases: NCI-60 cell line screen, 48 h
SK-MEL-2 melanoma = system: SK-MEL-2 melanoma
HOP-92 NSCLC = system: HOP-92 NSCLC
NCI-H522 lung = system: NCI-H522 lung
MDA-MB-231 breast = system: MDA-MB-231 breast
OVCAR-8 ovarian = system: OVCAR-8 ovarian
SF-268 CNS = system: SF-268 CNS
NCI-H226 lung = system: NCI-H226 lung
SK-OV-3 ovarian = system: SK-OV-3 ovarian
SF-539 CNS = system: SF-539 CNS
SK-MEL-28 melanoma = system: SK-MEL-28 melanoma
MALME-3M melanoma = system: MALME-3M melanoma
MOLT-4 leukemia = system: MOLT-4 leukemia
SF-295 CNS = system: SF-295 CNS
K-562 leukemia = system: K-562 leukemia
SN12C renal = system: SN12C renal
NCI/ADR-RES ovarian = system: NCI/ADR-RES ovarian
OVCAR-4 ovarian = system: OVCAR-4 ovarian
TK-10 renal = system: TK-10 renal
EKVX NSCLC = system: EKVX NSCLC
786-0 renal = system: 786-0 renal
HCC-2998 colon = system: HCC-2998 colon
SK-MEL-5 melanoma = system: SK-MEL-5 melanoma
KM12 colon = system: KM12 colon
HCT-15 colon = system: HCT-15 colon
SW-620 colon = system: SW-620 colon
UO-31 renal = system: UO-31 renal
RXF 393 renal = system: RXF 393 renal
M14 melanoma = system: M14 melanoma
HOP-62 NSCLC = system: HOP-62 NSCLC
CAKI-1 renal = system: CAKI-1 renal
NCI-H23 lung = system: NCI-H23 lung
SNB-75 CNS = system: SNB-75 CNS
LOX IMVI melanoma = system: LOX IMVI melanoma
PC-3 prostate = system: PC-3 prostate
UACC-257 melanoma = system: UACC-257 melanoma
MDA-MB-435 = system: MDA-MB-435
HS 578T breast = system: HS 578T breast
SNB-19 CNS = system: SNB-19 CNS
HL-60(TB) leukemia = system: HL-60(TB) leukemia
T-47D breast = system: T-47D breast
UACC-62 melanoma = system: UACC-62 melanoma
A549 NSCLC = system: A549 NSCLC
IGROV1 ovarian = system: IGROV1 ovarian
OVCAR-5 ovarian = system: OVCAR-5 ovarian
HCT-116 colon = system: HCT-116 colon
CCRF-CEM leukemia = system: CCRF-CEM leukemia
ACHN renal = system: ACHN renal
COLO 205 colon = system: COLO 205 colon
U251 CNS = system: U251 CNS
MDA-N = system: MDA-N
NCI-H460 lung = system: NCI-H460 lung
DU-145 prostate = system: DU-145 prostate
A498 renal = system: A498 renal
SR leukemia = system: SR leukemia
OVCAR-3 ovarian = system: OVCAR-3 ovarian
HT29 colon = system: HT29 colon
BT-549 breast = system: BT-549 breast
RPMI-8226 leukemia = system: RPMI-8226 leukemia
MCF7 breast = system: MCF7 breast

In the case of `C=C(Cl)C(Cl)(CBr)CCCC(C)(C)Cl` (stereo not drawn), the TGI (SK-MEL-2 melanoma) is reported as 32.3 µM, the TGI (HOP-92 NSCLC) is reported as 6.33 µM and the TGI (NCI-H522 lung) is reported as 28.1 µM. It also gave a TGI (MDA-MB-231 breast) of over 59 µM, a TGI (OVCAR-8 ovarian) of 52.6 µM and a TGI (SF-268 CNS) of 38.3 µM. The TGI (NCI-H226 lung) was over 100 µM, the TGI (SK-OV-3 ovarian) was over 100 µM and the TGI (SF-539 CNS) was 4.93 µM. For the same molecule, the TGI (SK-MEL-28 melanoma) was 25.4 µM, the TGI (MALME-3M melanoma) was over 55.1 µM and the TGI (MOLT-4 leukemia) was over 100 µM. For the same molecule, the TGI (SF-295 CNS) was 19.8 µM, the TGI (K-562 leukemia) was over 66.8 µM and the TGI (SN12C renal) was over 100 µM. The TGI (NCI/ADR-RES ovarian) was over 74.1 µM, the TGI (OVCAR-4 ovarian) was 17 µM and the TGI (TK-10 renal) was 4.54 µM. The TGI (EKVX NSCLC) was 32.6 µM, the TGI (786-0 renal) was 18 µM and the TGI (HCC-2998 colon) was 29.5 µM. The TGI (SK-MEL-5 melanoma) was over 90.8 µM, the TGI (KM12 colon) was 3.6 µM and the TGI (HCT-15 colon) was 70.8 µM. It also gave a TGI (SW-620 colon) of 41.4 µM, a TGI (UO-31 renal) of 29.3 µM and a TGI (RXF 393 renal) of over 100 µM. The TGI (M14 melanoma) was over 100 µM, the TGI (HOP-62 NSCLC) was 9.16 µM and the TGI (CAKI-1 renal) was 3.8 µM. For the same molecule, the TGI (NCI-H23 lung) was over 100 µM, the TGI (SNB-75 CNS) was 37.6 µM and the TGI (LOX IMVI melanoma) was 40.9 µM. It also gave a TGI (PC-3 prostate) of 9.36 µM, a TGI (UACC-257 melanoma) of 13.8 µM and a TGI (MDA-MB-435) of over 73.3 µM. For the same molecule, the TGI (HS 578T breast) was 12.7 µM, the TGI (SNB-19 CNS) was 30.1 µM and the TGI (HL-60(TB) leukemia) was 3.22 µM. It also gave a TGI (T-47D breast) of 4.15 µM, a TGI (UACC-62 melanoma) of 42.3 µM and a TGI (A549 NSCLC) of 32.1 µM. The TGI (IGROV1 ovarian) was over 75.3 µM, the TGI (OVCAR-5 ovarian) was 33 µM and the TGI (HCT-116 colon) was 30.8 µM. The TGI (CCRF-CEM leukemia) was over 62.3 µM, the TGI (ACHN renal) was 19.6 µM and the TGI (COLO 205 colon) was 20.8 µM. It also gave a TGI (U251 CNS) of 4.16 µM, a TGI (MDA-N) of over 79.5 µM and a TGI (NCI-H460 lung) of 17.7 µM. For the same molecule, the TGI (DU-145 prostate) was 23.5 µM, the TGI (A498 renal) was 33.9 µM and the TGI (SR leukemia) was over 100 µM. The TGI (OVCAR-3 ovarian) was 6.51 µM, the TGI (HT29 colon) was 4.28 µM and the TGI (BT-549 breast) was over 100 µM. For the same molecule, the TGI (RPMI-8226 leukemia) was 4.03 µM and the TGI (MCF7 breast) was 20.2 µM.
Molecule `O=C(O)c1ccc(C(=O)Nc2cccc3ccccc23)c(C(=O)O)c1` has a TGI (SK-MEL-2 melanoma) of over 100 µM, a TGI (HOP-92 NSCLC) of over 100 µM and a TGI (NCI-H522 lung) of over 100 µM. It also gave a TGI (MDA-MB-231 breast) of over 100 µM, a TGI (OVCAR-8 ovarian) of over 100 µM and a TGI (SF-268 CNS) of over 100 µM. The TGI (NCI-H226 lung) was over 100 µM, the TGI (SK-OV-3 ovarian) was over 100 µM and the TGI (SF-539 CNS) was over 100 µM. For the same molecule, the TGI (SK-MEL-28 melanoma) was over 100 µM, the TGI (MALME-3M melanoma) was over 100 µM and the TGI (MOLT-4 leukemia) was over 100 µM. It also gave a TGI (SF-295 CNS) of over 100 µM, a TGI (K-562 leukemia) of over 100 µM and a TGI (SN12C renal) of over 100 µM. For the same molecule, the TGI (NCI/ADR-RES ovarian) was over 100 µM, the TGI (OVCAR-4 ovarian) was over 100 µM and the TGI (TK-10 renal) was over 100 µM. For the same molecule, the TGI (EKVX NSCLC) was over 100 µM, the TGI (786-0 renal) was over 100 µM and the TGI (HCC-2998 colon) was over 100 µM. The TGI (SK-MEL-5 melanoma) was over 100 µM, the TGI (KM12 colon) was over 100 µM and the TGI (HCT-15 colon) was over 100 µM. It also gave a TGI (SW-620 colon) of over 100 µM, a TGI (UO-31 renal) of over 100 µM and a TGI (RXF 393 renal) of over 100 µM. The TGI (M14 melanoma) was over 100 µM, the TGI (HOP-62 NSCLC) was over 100 µM and the TGI (CAKI-1 renal) was over 100 µM. For the same molecule, the TGI (NCI-H23 lung) was over 100 µM, the TGI (SNB-75 CNS) was over 100 µM and the TGI (LOX IMVI melanoma) was over 100 µM. The TGI (PC-3 prostate) was over 100 µM, the TGI (UACC-257 melanoma) was over 100 µM and the TGI (MDA-MB-435) was over 100 µM. It also gave a TGI (HS 578T breast) of over 100 µM, a TGI (SNB-19 CNS) of over 100 µM and a TGI (HL-60(TB) leukemia) of over 100 µM. For the same molecule, the TGI (T-47D breast) was over 100 µM, the TGI (UACC-62 melanoma) was over 100 µM and the TGI (A549 NSCLC) was over 100 µM. For the same molecule, the TGI (IGROV1 ovarian) was over 100 µM, the TGI (OVCAR-5 ovarian) was over 100 µM and the TGI (HCT-116 colon) was over 100 µM. For the same molecule, the TGI (CCRF-CEM leukemia) was over 100 µM, the TGI (ACHN renal) was over 100 µM and the TGI (COLO 205 colon) was over 100 µM. The TGI (U251 CNS) was over 100 µM, the TGI (MDA-N) was over 100 µM and the TGI (NCI-H460 lung) was over 100 µM. It also gave a TGI (DU-145 prostate) of over 100 µM, a TGI (A498 renal) of over 100 µM and a TGI (SR leukemia) of over 100 µM. For the same molecule, the TGI (OVCAR-3 ovarian) was over 100 µM, the TGI (HT29 colon) was over 100 µM and the TGI (BT-549 breast) was over 100 µM. The TGI (RPMI-8226 leukemia) was over 100 µM and the TGI (MCF7 breast) was over 100 µM.
